Data on 5 molecules can be found in patent US20240150372A1 (priority 2021, published 2024).

Where two headings read alike, the source gives them in different places.

One series has as its target rVMAT2 (Rattus norvegicus (Rat), UniProt Q01827). In words: rVMAT2 fluorometric transporter inhibition assay (FFN206 uptake, rVMAT2-HEK). It counts as cell-based. The method, then:
(§1) Inhibition assays of transporters (hSERT and rVMAT2) were performed according to the following protocol.
(§2) Cell culture preparation and maintenance. Stably transfected hSERT-HEK and rVMAT2-HEK cellular cultures were maintained in Dulbecco's Minimal Essential Medium (DMEM) with GlutaMAX (Gibco) with the following additions: 10% (v/v) Fetal Bovine Serum (FBS, Atlanta Biologicals), 100 U/mL Penicillin (Gibco), and 10 μg/mL Streptomycin (Gibco). With regards to the former cell lineage, an additional ingredient, 500 μg/mL Geneticin (G418) (Gibco) was included to preserve the respective transgene.
(§3) hSERT and rVMAT2 fluorometric screening assays. For both hSERT and rVMAT2 screening experiments, respective singly transfected cells were seeded at a density of 0.09×10^6 cells/well in poly-D-Lysine (Alamanda Polymers, Inc.) coated white solid-bottom 96-well plates (Costar). Growth was permitted for approximately 44 hours in said aqueous media and at an incubation environment of 37° C. and 5% Carbon Dioxide. At the beginning of the experiment, the cellular growth solution was aspirated, and individual cells were rinsed with 150 μL of 1×Dulbecco's Phosphate Buffered Saline (PBS; HyClone). 63 μL of Experimental Media (consisting of the following contents: DMEM without phenol red but with 4.5 g/L of D-Glucose (Gibco), 1% (v/v) FBS (Atlanta Biologicals), 100 U/mL Penicillin (Gibco), and 10 μg/mL Streptomycin (Gibco)) with 2×tiered concentrations of inhibitor (or DMSO, the vehicle of these experiments) were added to the respective wells. […] A final solution of 120 μL of PBS is finally added to all corresponding wells for cell maintenance before undergoing fluorescence uptake reading by a BioTek H1MF plate reader. […]
(§4) Data analysis. […] Respective inhibitor values were first subtracted from vehicular values to quantify the respective fluorescence uptake. This metric was then analyzed using the dose-response-inhibitor nonlinear curve fitting model ([inhibitor] vs response (three parameters)) as supplied by GraphPad Prism 8 software. […]

The target of the next series is rKOR (Rattus norvegicus (Rat), UniProt P34975). In words: rKOR agonist assay (cAMP), rKOR-CHO. It is filed as cell-based. As to the method: EC50 values and % efficacy of control agonist (KOR: U-50,488) maximal response at 1 μM for rKOR-CHO were obtained by screening the selected compounds via commercially available assay services.
For a further series, the system named is C57BL/6J mice. In words: Mouse tail-flick test. It is filed as in vivo. To be noted: s.c., cumulative doses 1-30 mg/kg, 30 min post injection. As to the method: C57BL/6J (8-12 weeks, 22-31 g) were purchased from the Jackson Laboratory (Bar Harbor, ME) and housed 5 mice per cage with food and water available ad libitum. Mice were maintained on a 12-hr light/dark cycle (lights on 7:00-19:00) and all testing was done in the light cycle. Temperature was kept constant at 22±2° C., and relative humidity was maintained at 50±5%. Mice were moved to the testing room 30 minutes before the experiment to allow for acclimation. The body weight of each mouse and base tail-flick value were recorded. Mice were administered a 1 mg/kg s.c. dose of compound solution (volume of injection 220-310 μL based on body weight). After injection mice were returned to the home cage and allowed to rest for 30 minutes. Thirty minutes post injection the tail-flick measurement was taken using thermal stimulation via IR on a Ugo Basile unit set to 52 PSU (ten seconds was used as a maximum latency to prevent tissue damage). Mice were then administered 3 mg/kg s.c. dose, allowed to rest for 30 minutes, followed by another tail-flick measurement. […] Tail-flick latencies for the different doses were expressed as percentage of maximum potential effect (% MPE) by subtracting the experimental value by the base tail flick value then dividing by the difference between the maximum possible latency (10 seconds) and the base tail-flick value and finally multiplying by 100. […]

For a further series, the target named is hSERT (Homo sapiens (Human), UniProt P31645). In words: hSERT fluorometric transporter inhibition assay (APP+ uptake, hSERT-HEK). It is filed as cell-based. The method, then: as §1, §2, §3, §4
Series [1] deals with adult human primary ventricular myocytes. In words: Pro-arrhythmia assay in adult human primary ventricular cardiomyocytes (contractility). It counts as cell-based. To be noted: 0.1-10 μM, 1 Hz pacing. As to the method:
Cardiac adverse effects of iboga alkaloids and related analogs was assessed via a commercially available assay, procedure reported in (Nguyen, N. et al. 2017; Page, G. et al. 2016) (FIG. 1).
Isolation of adult human primary ventricular myocytes. Adult human primary ventricular myocytes were isolated from ethically consented donor hearts. A proprietary protocol was employed to enzymatically digest hearts and isolate cardiomyocytes.
Contractility recordings procedures. Cardiomyocytes were placed in a perfusion chamber mounted on the stage of inverted Motic AE31E (IonOptix) or Olympus IX83P1ZF microscopes (MyoBlazer) and continuously perfused at approximately 2 ml/min with recording buffer heated to 35±1° C. using an in-line heater from Warner Instruments (IonOptix & MyoBlazer) and allowed to equilibrate for 5 minutes under constant perfusion. The cells were field stimulated with supra-threshold voltage at a 1 Hz pacing frequency, with a bipolar pulse of 3 ms duration, using a pair of platinum wires placed on opposite sides of the chamber connected to a MyoPacer stimulator. […] The IonWizard software or MyoBLAZER Analysis software analyzed the periodicity in the optical density of these bands by means of a fast Fourier transform algorithm.
Pro-arrhythmia markers. […] STV (STV=Σ|CAn+1−CAn|(20×√2)^−1) was calculated with the last 20 transients of each control and test article concentration period. […]

Series [2] addresses human ethera-go-go-related gene (hERG) potassium channels (Homo sapiens (Human), UniProt Q12809). To be noted: Alper, K. et al 2016; cited from earlier work.
The next series deals with human cardiomyocytes. To be noted: Rubi, L. et al 2017; cited from earlier work.
The test system of series [3] is male F344 rats. As to the kind of experiment: Morphine self-administration, repeated dosing regimen. It is filed as in vivo, rat.
The test system of series [4] is male F344 rats. In words: Morphine intravenous self-administration, single administration. To be noted: 40 mg/kg IP. It counts as in vivo, rat.

What is called IC50 is the point on the concentration scale where inhibition reaches its midpoint. As a reminder, the EC50 is the concentration needed to bring the measured effect to its halfway point. For `CCC1CC2C[C@H]3c4oc5ccc(O)cc5c4CCN2C13` (stereo partly drawn) [(16R)-Oxa-noribogaine], the IC50 on rVMAT2 (± SEM, read-out: rVMAT2 (IC50)) worked out at 140 ± 30 nM; at hSERT (± SEM, read-out: hSERT (IC50)), 450 ± 70 nM. Further, the “% efficacy of control agonist (KOR: U-50,488) maximal response at 1 μM” value on rKOR (cAMP) was “(96%)”. At rKOR (cAMP, read-out: rKOR (EC50)), the 50% effective concentration (EC50) was below 10 nM. Moreover, the “ED50, analgesia in tail-flick test” value in the series on C57BL/6J mice turned out to be 2.8 mg/kg.

Regarding `CCC1CC2C[C@@H]3c4oc5ccc(O)cc5c4CCN2C13` (stereo partly drawn) [(16S)-Oxa-noribogaine], the IC50 on rVMAT2 (± SEM, read-out: rVMAT2 (IC50)) stood at 2800 ± 550 nM; on hSERT (± SEM, read-out: hSERT (IC50)) it was 2900 ± 680 nM. For the same molecule, the “% efficacy of control agonist (KOR: U-50,488) maximal response at 1 μM” value on rKOR (cAMP) is reported as “(25%)”. Besides, the EC50 on rKOR (cAMP, read-out: rKOR (EC50)) was around 300 nM. Also, the “ED50, analgesia in tail-flick test” value in the series with C57BL/6J mice is on record as above 30 mg/kg.

With `CC[C@H]1C[C@H]2C[C@H]3c4[nH]c5ccc(O)cc5c4CCN(C2)C13` [noribogaine], the pro-arrhythmia effects entry in [1] is reported as “exhibits pro-arrhytmia effects”. Moreover, the “hERG block IC50” value in series [2] is recorded as “low micromolar”. For the same molecule, the action potential repolarization result in the series on human cardiomyocytes is “significantly delayed action potential repolarization”.

In the case of `CCC1CC2CC3c4oc5ccc(O)cc5c4CCN(C2)C13` (centres unmarked) [oxa-noribogaine], the concentration for half-maximal inhibition (IC50) was 670 ± 110 nM against rVMAT2 and 900 ± 120 nM against hSERT. Also, the pro-arrhythmia effects entry in series [1] is recorded as “no pro-arrhytmia effects even at high concentrations”. For the same molecule, the “morphine intake in the following three sessions” value in the series on male F344 rats [3] (after first 10 mg/kg) is “approximately 40 % of baseline levels”. The “morphine intake recovered after administration” value in the series on male F344 rats [3] (after first 40 mg/kg) is “approximately 60 % of VEH levels”. The “morphine intake at the end of the dosing regimen” value in the series with male F344 rats [3] (after last 5 mg/kg) was “approximately 8 % of baseline levels”. Further, the “morphine intake in the following session” value in the series with male F344 rats [3] (after second 10 mg/kg) is “approximately 25 % of baseline levels”. In addition, the “morphine intake recovered over following three days” value with male F344 rats [3] (after second 40 mg/kg) is on record as “approximately 50%”. Moreover, in the series with male F344 rats [3] (eighteen days after last 5 mg/kg), the “morphine intake eighteen days following the last administration” value is reported as 40%. Moreover, the “morphine intake in the session following administration” value with male F344 rats [3] (first 10 mg/kg) is listed as “approximately 4 infusions”. At rKOR, this molecule showed a 50% effective concentration (EC50) below 10 nM. Also, the Emax on rKOR (cAMP, read-out: % efficacy of control agonist (KOR: U-50,488) maximal response at 1 μM) was 102%.

For the molecule epi-oxa-noribogaine, the “morphine intake, duration of reduction” value with male F344 rats [4] is on record as “significantly decreased morphine self-administration for three sessions”.
